The text below walks through data of the NIST ThermoML archive (doi:10.1021/je100830b).

± gives the expanded uncertainty stated by the source.

The conditions of the data set: 298.15 K; 101.33 kPa; Liquid; Vibrating tube method.
The mass density is the mass of a sample divided by its volume. Consider `CO` [methanol], for which the mass density was 786.3 ± 0.2 kg/m3.

`CCCO` [propan-1-ol]: the mass density is on record as 797.6 ± 0.2 kg/m3.

Take `CCO` [ethanol]: the mass density was determined as 786.4 ± 0.2 kg/m3.

As for `C[N+](=O)[O-]` [nitromethane], the mass density was 1130.9 ± 0.4 kg/m3.

Regarding `CCCCn1cc[n+](C)c1.COS(=O)(=O)[O-]` [1-butyl-3-methylimidazolium methyl sulfate], the mass density worked out at 1208 ± 2.8 kg/m3.
